Data taken from ChEMBL document CHEMBL5291721, “A preclinical secondary pharmacology resource illuminates target-adverse drug reaction associations of marketed drugs” (Nat Commun, 2023).

Key:
Androgen receptor = molecular target: T1, Androgen receptor (Rattus norvegicus, UniProt P15207)
T1 sequence (P15207 whole entry): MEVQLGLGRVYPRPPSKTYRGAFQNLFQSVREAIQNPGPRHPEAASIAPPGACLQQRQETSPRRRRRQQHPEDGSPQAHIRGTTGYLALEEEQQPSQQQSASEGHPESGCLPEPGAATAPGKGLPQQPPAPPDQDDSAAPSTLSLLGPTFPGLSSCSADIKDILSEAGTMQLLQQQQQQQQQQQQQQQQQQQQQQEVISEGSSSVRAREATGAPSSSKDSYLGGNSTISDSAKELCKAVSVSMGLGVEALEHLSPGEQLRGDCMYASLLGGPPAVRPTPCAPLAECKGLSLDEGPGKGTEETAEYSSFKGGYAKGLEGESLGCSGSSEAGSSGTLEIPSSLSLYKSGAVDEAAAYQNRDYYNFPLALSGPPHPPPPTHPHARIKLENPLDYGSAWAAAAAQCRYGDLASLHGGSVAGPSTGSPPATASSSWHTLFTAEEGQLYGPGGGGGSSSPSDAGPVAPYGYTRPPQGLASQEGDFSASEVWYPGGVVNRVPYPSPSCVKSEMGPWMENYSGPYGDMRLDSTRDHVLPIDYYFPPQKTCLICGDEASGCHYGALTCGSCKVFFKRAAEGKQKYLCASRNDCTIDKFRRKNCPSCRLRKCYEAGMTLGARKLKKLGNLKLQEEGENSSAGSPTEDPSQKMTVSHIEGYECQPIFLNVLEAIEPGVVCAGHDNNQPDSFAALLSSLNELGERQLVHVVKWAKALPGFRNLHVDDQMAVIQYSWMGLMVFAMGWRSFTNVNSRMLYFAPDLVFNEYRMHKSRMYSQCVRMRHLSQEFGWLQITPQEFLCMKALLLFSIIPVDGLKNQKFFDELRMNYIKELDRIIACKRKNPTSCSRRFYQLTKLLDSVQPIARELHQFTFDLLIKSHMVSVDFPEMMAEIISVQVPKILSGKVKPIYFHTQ

Cannabinoid receptor 1 = Cannabinoid receptor 1 (Homo sapiens, UniProt P21554); assay type: functional
Chain of Cannabinoid receptor 1 (P21554 whole entry): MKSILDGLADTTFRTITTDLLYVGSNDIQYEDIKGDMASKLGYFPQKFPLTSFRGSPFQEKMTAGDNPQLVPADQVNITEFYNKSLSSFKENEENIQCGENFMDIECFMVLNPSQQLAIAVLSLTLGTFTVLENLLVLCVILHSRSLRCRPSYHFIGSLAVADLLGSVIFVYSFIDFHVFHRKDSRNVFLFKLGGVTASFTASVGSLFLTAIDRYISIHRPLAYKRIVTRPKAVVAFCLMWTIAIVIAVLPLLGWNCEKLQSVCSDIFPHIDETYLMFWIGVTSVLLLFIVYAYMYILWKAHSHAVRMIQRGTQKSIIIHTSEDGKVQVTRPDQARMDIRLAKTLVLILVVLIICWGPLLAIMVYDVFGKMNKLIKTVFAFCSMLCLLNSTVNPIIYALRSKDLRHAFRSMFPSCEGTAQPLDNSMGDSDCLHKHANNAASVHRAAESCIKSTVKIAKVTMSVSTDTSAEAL

Estrogen receptor beta = Estrogen receptor beta (Homo sapiens, UniProt Q92731)
Chain of Estrogen receptor beta (Q92731 whole entry): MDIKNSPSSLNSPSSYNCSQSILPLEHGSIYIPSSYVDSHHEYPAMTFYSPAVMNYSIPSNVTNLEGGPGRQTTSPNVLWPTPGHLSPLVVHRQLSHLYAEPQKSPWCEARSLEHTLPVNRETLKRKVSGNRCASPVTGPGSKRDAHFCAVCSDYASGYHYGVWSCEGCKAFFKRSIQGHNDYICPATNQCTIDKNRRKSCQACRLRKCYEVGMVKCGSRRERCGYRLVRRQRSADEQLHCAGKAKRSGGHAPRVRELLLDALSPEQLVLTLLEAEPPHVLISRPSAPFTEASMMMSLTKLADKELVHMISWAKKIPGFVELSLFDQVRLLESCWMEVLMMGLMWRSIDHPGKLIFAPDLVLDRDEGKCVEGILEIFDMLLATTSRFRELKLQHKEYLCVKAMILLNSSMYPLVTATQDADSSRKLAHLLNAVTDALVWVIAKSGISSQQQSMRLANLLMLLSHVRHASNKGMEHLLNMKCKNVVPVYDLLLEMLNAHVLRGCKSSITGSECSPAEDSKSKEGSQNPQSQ

Histamine H2 receptor = Histamine H2 receptor (Homo sapiens, UniProt P25021)
Chain of Histamine H2 receptor (P25021 whole entry): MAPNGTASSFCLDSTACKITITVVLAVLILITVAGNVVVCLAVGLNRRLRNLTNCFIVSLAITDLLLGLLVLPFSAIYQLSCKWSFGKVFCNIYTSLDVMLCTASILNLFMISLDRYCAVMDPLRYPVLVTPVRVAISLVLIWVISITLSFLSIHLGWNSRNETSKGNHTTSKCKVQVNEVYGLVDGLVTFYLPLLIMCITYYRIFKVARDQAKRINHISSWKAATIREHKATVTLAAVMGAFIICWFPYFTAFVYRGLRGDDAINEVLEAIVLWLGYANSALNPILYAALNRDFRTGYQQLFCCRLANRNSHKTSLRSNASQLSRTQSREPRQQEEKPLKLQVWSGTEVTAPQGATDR

[1] = molecular target: 5-hydroxytryptamine receptor 2B (Homo sapiens, UniProt P41595)
Chain of 5-hydroxytryptamine receptor 2B (P41595 whole entry): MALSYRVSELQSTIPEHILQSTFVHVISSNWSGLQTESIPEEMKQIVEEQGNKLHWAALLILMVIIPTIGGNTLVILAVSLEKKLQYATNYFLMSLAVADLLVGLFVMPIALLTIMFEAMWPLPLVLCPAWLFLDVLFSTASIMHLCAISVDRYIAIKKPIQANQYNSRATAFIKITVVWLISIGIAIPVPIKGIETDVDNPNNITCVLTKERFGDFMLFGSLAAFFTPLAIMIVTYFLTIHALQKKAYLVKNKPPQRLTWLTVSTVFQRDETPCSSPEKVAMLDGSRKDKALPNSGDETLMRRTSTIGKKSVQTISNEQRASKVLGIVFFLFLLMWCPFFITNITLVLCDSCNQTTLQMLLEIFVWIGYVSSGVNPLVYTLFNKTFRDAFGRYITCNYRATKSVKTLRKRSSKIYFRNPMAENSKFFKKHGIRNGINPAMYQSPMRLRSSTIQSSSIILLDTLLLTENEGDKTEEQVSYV

[2] = molecular target: 5-hydroxytryptamine receptor 6 (Homo sapiens, UniProt P50406)
Chain of 5-hydroxytryptamine receptor 6 (P50406 whole entry): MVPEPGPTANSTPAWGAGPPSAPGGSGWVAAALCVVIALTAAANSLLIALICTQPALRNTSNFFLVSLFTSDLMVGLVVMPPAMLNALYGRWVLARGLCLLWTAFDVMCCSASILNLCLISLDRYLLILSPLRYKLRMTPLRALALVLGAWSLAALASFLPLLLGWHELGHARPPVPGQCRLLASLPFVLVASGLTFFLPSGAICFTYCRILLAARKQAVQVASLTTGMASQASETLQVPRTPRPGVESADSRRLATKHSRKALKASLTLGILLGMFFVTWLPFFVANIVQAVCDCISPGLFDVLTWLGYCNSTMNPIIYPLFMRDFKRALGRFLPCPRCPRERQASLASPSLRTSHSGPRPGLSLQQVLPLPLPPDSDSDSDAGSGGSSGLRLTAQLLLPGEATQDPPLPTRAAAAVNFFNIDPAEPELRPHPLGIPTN

[3] = molecular target: 5-hydroxytryptamine receptor 7 (Homo sapiens, UniProt P34969)
Chain of 5-hydroxytryptamine receptor 7 (P34969 whole entry): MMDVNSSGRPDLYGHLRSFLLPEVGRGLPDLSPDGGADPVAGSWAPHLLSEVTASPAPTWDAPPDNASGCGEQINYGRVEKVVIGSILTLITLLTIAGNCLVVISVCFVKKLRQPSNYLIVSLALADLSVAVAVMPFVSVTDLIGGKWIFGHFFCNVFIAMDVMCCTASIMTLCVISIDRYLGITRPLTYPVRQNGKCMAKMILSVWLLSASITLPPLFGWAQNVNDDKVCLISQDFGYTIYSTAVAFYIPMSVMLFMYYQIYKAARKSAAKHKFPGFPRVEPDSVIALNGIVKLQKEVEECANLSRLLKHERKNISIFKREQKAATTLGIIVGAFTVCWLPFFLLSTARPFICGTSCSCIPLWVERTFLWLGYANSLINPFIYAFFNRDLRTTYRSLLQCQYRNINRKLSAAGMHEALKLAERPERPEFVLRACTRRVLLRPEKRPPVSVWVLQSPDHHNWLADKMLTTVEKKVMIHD

Substance-P receptor = Substance-P receptor (Homo sapiens, UniProt P25103)
Chain of Substance-P receptor (P25103 whole entry): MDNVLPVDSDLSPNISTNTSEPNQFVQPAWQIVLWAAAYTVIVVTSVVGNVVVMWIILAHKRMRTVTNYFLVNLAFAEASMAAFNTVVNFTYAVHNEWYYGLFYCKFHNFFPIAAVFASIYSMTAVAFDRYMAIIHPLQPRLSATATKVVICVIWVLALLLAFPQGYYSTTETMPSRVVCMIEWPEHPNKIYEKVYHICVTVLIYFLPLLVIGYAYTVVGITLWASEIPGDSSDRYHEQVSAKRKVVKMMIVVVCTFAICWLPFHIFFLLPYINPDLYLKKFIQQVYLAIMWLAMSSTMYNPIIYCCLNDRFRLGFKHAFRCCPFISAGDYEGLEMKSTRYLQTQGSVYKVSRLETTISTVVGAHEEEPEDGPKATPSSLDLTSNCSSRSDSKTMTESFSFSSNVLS

[4] = molecular target: T2, Alpha-2A adrenergic receptor (Homo sapiens, UniProt P08913)
T2 sequence (P08913 whole entry): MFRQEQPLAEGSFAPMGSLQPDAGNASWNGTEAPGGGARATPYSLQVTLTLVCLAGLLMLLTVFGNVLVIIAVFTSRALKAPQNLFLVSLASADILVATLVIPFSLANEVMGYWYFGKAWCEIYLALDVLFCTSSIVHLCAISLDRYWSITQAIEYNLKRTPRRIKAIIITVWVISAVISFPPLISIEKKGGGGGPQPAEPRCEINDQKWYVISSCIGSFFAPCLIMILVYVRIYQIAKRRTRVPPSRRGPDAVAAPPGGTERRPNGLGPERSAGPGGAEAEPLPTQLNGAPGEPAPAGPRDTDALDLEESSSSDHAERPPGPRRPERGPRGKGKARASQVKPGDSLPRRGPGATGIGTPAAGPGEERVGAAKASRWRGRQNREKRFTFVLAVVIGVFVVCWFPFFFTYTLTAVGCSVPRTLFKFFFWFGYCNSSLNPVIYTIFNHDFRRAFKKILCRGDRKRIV

[5] = molecular target: T3, Muscarinic acetylcholine receptor M2 (Homo sapiens, UniProt P08172)
T3 sequence (P08172 whole entry): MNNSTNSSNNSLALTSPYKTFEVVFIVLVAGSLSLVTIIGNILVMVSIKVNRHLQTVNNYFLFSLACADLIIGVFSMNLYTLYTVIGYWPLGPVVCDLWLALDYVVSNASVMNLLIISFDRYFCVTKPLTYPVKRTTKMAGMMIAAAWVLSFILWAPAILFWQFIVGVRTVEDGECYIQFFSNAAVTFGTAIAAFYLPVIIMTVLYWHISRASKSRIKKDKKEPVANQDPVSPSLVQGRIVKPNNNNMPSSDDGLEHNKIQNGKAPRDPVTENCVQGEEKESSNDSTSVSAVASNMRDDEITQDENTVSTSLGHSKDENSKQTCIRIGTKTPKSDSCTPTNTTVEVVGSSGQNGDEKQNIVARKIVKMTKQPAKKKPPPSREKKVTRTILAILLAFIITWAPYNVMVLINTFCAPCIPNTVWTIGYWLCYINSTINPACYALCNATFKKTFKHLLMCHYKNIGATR

[6] = molecular target: T4, Alpha-1A adrenergic receptor (Homo sapiens, UniProt P35348)
T4 sequence (P35348 whole entry): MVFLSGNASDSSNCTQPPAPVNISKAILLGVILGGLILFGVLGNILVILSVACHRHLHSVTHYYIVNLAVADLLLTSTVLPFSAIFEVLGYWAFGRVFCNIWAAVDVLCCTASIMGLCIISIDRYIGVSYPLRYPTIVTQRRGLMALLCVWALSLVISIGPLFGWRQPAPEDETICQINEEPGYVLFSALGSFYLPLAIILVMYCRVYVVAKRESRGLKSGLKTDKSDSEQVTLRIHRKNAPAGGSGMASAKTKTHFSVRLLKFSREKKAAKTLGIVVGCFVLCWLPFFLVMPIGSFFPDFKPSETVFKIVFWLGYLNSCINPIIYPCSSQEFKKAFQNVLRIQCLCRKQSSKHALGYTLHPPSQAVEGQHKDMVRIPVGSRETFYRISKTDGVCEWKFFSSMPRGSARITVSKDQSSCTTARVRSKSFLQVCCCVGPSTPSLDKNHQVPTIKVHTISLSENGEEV

[7] = molecular target: 5-hydroxytryptamine receptor 2A (Homo sapiens, UniProt P28223)
Chain of 5-hydroxytryptamine receptor 2A (P28223 whole entry): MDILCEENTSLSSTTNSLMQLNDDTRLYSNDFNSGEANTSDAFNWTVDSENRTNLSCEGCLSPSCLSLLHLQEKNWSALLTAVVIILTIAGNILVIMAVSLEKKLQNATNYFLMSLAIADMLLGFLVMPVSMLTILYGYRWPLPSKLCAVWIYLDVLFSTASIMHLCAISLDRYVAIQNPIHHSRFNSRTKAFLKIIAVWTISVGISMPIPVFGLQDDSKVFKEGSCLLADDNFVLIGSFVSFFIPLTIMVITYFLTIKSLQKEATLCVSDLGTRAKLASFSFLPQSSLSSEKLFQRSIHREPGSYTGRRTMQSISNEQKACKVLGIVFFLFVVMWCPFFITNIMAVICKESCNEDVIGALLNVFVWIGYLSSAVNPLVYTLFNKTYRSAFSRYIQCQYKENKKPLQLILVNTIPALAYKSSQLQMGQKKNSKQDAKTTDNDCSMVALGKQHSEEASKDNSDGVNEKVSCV
Also: assay procedure not described here.

| Structure (SMILES) | AC50 (Androgen receptor) | AC50 (Estrogen receptor beta) | AC50 (Histamine H2 receptor) | AC50 [1] | AC50 (Substance-P receptor) | AC50 [4] | AC50 [5] | AC50 [6] | AC50 [7] | further results |
| --- | --- | --- | --- | --- | --- | --- | --- | --- | --- | --- |
| C[N+](C)(C)CCOC(N)=O [CARBAMOYLCHOLINE] | > 10 µM |  |  |  |  |  |  |  |  |  |
| CN(C)CCCN1c2ccccc2Sc2ccccc21 [PROMAZINE] |  | > 30 µM | 0.111 µM | 0.192 µM | > 10 µM | 5 µM | 0.999 µM | 0.0138 µM |  | AC50 (Cannabinoid receptor 1): > 10 µM; AC50 [2]: 0.242 µM; AC50 [3]: 2.16 µM |
| CC(=O)N[C@H]1[C@H]([C@H](O)[C@H](O)CO)OC(C(=O)O)=C[C@@H]1N=C(N)N [ZANAMIVIR] | > 30 µM |  |  |  |  |  |  |  |  |  |
| CC(=O)N(CC(O)CO)c1c(I)c(C(=O)NCC(O)CO)c(I)c(C(=O)NCC(O)CO)c1I (stereo not given) [IOHEXOL] |  |  |  |  |  |  |  |  | > 10 µM |  |
| O=C(O)c1cccc(-c2noc(-c3ccccc3F)n2)c1 |  |  |  |  |  |  |  |  | > 10 µM |  |
| C=C1C[C@@H]2[C@H](CC[C@]3(C)C(=O)CC[C@@H]23)[C@@]2(C)C=CC(=O)C=C12 [EXEMESTANE] |  | > 30 µM |  |  |  |  | > 10 µM |  | 6.96 µM |  |
| CC(C)NCC1CCc2cc(CO)c([N+](=O)[O-])cc2N1 (stereo not given) [OXAMNIQUINE] | > 10 µM |  |  |  |  |  |  |  |  |  |
| O=C(Nc1ccccc1)OCC(CN1CCCCC1)OC(=O)Nc1ccccc1 (stereo not given) [DIPERODON] |  | > 30 µM | > 10 µM | 1.96 µM | > 10 µM | > 10 µM | > 10 µM | > 10 µM | > 10 µM | AC50 (Cannabinoid receptor 1): > 10 µM; AC50 [2]: > 10 µM; AC50 [3]: > 10 µM |
| CC(C)(N)Cc1ccc(Cl)cc1 [CHLORPHENTERMINE] |  |  | > 10 µM | 3 µM |  | > 10 µM | > 10 µM |  | 9.06 µM |  |
| O=P(O)(O)C(O)(Cc1cccnc1)P(=O)(O)O [RISEDRONIC ACID] |  |  | > 10 µM | > 10 µM | > 10 µM | > 10 µM |  | > 10 µM |  | AC50 (Cannabinoid receptor 1): > 10 µM; AC50 [2]: > 10 µM; AC50 [3]: > 10 µM |
| O=C1CCC(N2C(=O)c3ccccc3C2=O)C(=O)N1 (stereo not given) [THALIDOMIDE] |  | > 30 µM | > 10 µM | > 10 µM | > 10 µM | > 10 µM | > 10 µM | > 10 µM |  |  |
| CN(C)[C@@H]1C(O)=C(C(N)=O)C(=O)[C@@]2(O)C(O)=C3C(=O)c4c(O)ccc(Cl)c4[C@@H](O)[C@H]3C[C@@H]12 [DEMECLOCYCLINE] | 2.6 µM |  |  |  |  |  |  |  |  |  |
